Measurements taken from patent US9193744B2, “Heterocyclic nuclear hormone receptor modulators” (AbbVie Inc., priority 2012, dated 2015).

target: T1, Glucocorticoid Receptor (GR) (Homo sapiens, UniProt P04150); experiment: GR Fluorescence Polarization Assay (PolarScreen Glucocorticoid Receptor Competitor Assay, Red); conditions: fluorescence polarization binding ranges
T1 construct: purchased Invitrogen P2893
T1 sequence (P04150 1-777): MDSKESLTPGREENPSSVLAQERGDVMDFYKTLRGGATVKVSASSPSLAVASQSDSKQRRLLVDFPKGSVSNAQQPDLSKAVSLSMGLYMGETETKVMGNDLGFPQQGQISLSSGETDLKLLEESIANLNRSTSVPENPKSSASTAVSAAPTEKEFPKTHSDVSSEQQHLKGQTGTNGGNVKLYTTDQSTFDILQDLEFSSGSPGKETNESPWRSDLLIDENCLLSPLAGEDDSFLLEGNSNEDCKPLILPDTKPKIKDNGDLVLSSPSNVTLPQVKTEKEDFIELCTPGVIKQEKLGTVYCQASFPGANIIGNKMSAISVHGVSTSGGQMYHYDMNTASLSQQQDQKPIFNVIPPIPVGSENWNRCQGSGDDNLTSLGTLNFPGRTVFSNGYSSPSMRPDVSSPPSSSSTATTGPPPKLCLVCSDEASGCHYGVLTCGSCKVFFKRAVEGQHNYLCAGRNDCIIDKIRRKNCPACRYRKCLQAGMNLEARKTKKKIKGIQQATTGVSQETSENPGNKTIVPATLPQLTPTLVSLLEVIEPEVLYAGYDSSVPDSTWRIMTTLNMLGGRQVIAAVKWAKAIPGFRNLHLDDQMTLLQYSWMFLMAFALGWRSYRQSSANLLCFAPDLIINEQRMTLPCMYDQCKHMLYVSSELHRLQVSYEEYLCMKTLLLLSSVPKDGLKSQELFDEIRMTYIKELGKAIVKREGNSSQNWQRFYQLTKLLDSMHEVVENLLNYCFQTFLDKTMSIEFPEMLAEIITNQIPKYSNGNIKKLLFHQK
Method: Fluorescence polarization assays were carried out using the PolarScreen™ Glucocorticoid Receptor Competitor Assay, Red from Invitrogen (P2893). The assay buffer was prepared according to the manufacturer's protocol and used to dilute the fluorescent glucocorticoid and GR. Compounds were prepared and serial diluted 1:4 in DMSO. Compound, fluorescent glucocorticoid and GR were added in a final volume of 20 μL and incubated overnight at 4° C. Fluorescent polarization was measured on the PerkinElmer Envision®. Fluorescence polarization binding ranges measured using GR Fluorescence Polarization Assay: […]

IC50 [nM]	SMILES
100 to 1000	O=C(NC1CC1)[C@@]12CC[C@](O)(C(F)(F)F)C[C@H]1CCCc1cc3c(cnn3-c3ccc(F)cc3)cc12 (single isomer, unassigned) [Example 86]
100 to 1000	C[C@]1(O)CC[C@]2(Cc3ccccn3)c3cc4cnn(-c5ccc(F)cc5)c4nc3CCC[C@@H]2C1 (single isomer, unassigned) [Example 150]
100 to 1000	CC[C@]12CC[C@@](OS(N)(=O)=O)(C(F)(F)F)C[C@@H]1CCCc1cc3c(cnn3-c3ccc(F)cc3)cc12 [Example 170, (3S,4aS,12bS)-12b-ethyl-9-(4-fluorophenyl)-3-(trifluoromethyl)-1,2,3,4,4a,5,6,7,9,12b-decahydrobenzo[6,7]cyclohepta[1,2-f]indazol-3-yl sulfamate]
100 to 1000	C[C@@]1(O)CC[C@@]2(Cc3ncccn3)c3cc4cnn(-c5ccc(F)cc5)c4nc3CCC[C@H]2C1 [Example 161]
100 to 1000	CC[C@]12CC[C@@](OP(=O)(O)O)(C(F)(F)F)C[C@@H]1CCCc1cc3c(cnn3-c3ccc(F)cc3)cc12 [Example 101, (3S,4aS,12bS)-12b-Ethyl-9-(4-fluorophenyl)-3-(trifluoromethyl)-1,2,3,4,4a,5,6,7,9,12b-decahydrobenzo[6,7]cyclohepta[1,2-f]indazol-3-yl dihydrogen phosphate]

The next lines start with the molecule.

SMILES	IC50 [nM]
COC[C@]1(O)CC[C@]2(Cc3ccccn3)c3cc4cnn(-c5ccc(F)cc5)c4nc3CCC[C@H]2C1 [Example 157]	100 to 1000
CC[C@]12CC[C@@](O)(COC)C[C@H]1CCOc1cc3c(cnn3-c3ccnc(OC)c3)cc12 [Example 137]	1000 to 10000
COC[C@]1(O)CC[C@]2(Cc3ncccn3)c3cc4cnn(-c5ccc(F)cc5)c4nc3CCC[C@@H]2C1 [Example 159]	100 to 1000
Cc1cc(-n2ncc3cc4c(cc32)CCC[C@@H]2C[C@@](C)(O)CC[C@]42Cc2ccccn2)ccn1 [Example 61]	100 to 1000
N#CC[C@]1(O)CC[C@]2(Cc3ccccn3)c3cc4cnn(-c5ccc(F)cc5)c4nc3CCC[C@@H]2C1 [Example 164]	100 to 1000
CC[C@]12CC[C@@](O)(COC)C[C@H]1CCOc1cc3c(cnn3-c3ccnc(C(F)(F)F)c3)cc12 [Example 140]	100 to 1000
CC[C@]12CC[C@](C)(O)C[C@H]1CCOc1cc3c(cnn3-c3ccnc(C)c3)cc12 [Example 142]	100 to 1000
CC[C@@]12CC[C@](O)(COC)C[C@@H]1CCOc1cc3c(cnn3-c3nnc(C)s3)cc12 (racemic) [Example 139]	100 to 1000
CC[C@]12CC[C@@](O)(CC#N)C[C@H]1CCOc1cc3c(cnn3-c3ccnc(C)c3)cc12 [Example 144]	100 to 1000
CC[C@]12CC[C@@](O)(COC)C[C@H]1CCOc1cc3c(cnn3-c3ccnc(C)c3)cc12 (single isomer, unassigned) [Example 127]	100 to 1000
